Literature values in patent US20120093928A1, “ORAL METAXALONE COMPOSITIONS” (RANBAXY LABORATORIES LIMITED, priority 2007, published 2012).

Cc1cc(C)cc(OCC2CNC(=O)O2)c1 (centres unmarked) [metaxalone, 5-[(3,5-dimethyphenoxy)methyl]-2-oxazolidinone]
plasma half-life (in vivo): 2 to 3 h | time to mean peak plasma concentrations (oral, single 800 mg dosage): 2 h
